Results published in patent US20190192699A1, “NUCLEAR IMAGING AND RADIOTHERAPEUTICS AGENTS TARGETING CARBONIC ANHYDRASE IX AND USES THEREOF” (THE JOHNS HOPKINS UNIVERSITY, priority 2016, published 2019).

Columns and labels:
[1] = molecular target: T1, CAIX (Homo sapiens, UniProt Q16790); parameters: host or cells: ccRCC tumours in patients; details: Wichert et al., 2015; read-out: Kd for CAIX (known / reported); cited from earlier work
[2] = molecular target: T1, CAIX; experiment: Competitive fluorescence polarization assay for [Al19F]XYIMSR-04, [63/65Cu]XYIMSR-06 and [175Lu]XYIMSR-01; assay type: binding; parameters: purchased R&D Systems; details: 100 nM CAIX, 80 nM FITC-labeled ligand; read-out: IC50, competitive fluorescence polarization (similar method)
Description: (§1) General Procedures. Solvents and chemicals obtained from commercial sources were of analytical grade or better and used without further purification. Fmoc-protected azidolysine, HBTU, and N-α-fmoc-L-aspartic acid α-tert-butyl ester were purchased from Chem Impex International, Inc. (Wooddale, Ill.). Carrier-free [^111In]InCl3 was purchased from MDS Nordion (Ottawa, ON, Canada). DOTA-NHS-ester (1,4,7,10-tetraazacyclododecane-1,4,7,10-tetraacetic acid mono N-hydroxysuccinimide ester) was purchased from Macrocyclics, Inc. (Dallas, Tex.). Indium (III) nitrate, triethylsilane (Et3SiH), N,N-diisopropylethylamine (DIEA), triethylamine (TEA), piperidine, 4,4-bis(4-hydroxyphenyl)valeric acid, copper iodide (CuI), and tris[(1-benzyl-1H-1,2,3-triazol-4-yl)methyl]amine (TBTA) were purchased from Sigma-Aldrich (Saint Louis, Mo.). Pre-loaded O-bis-(aminoethyl)ethylene glycol on trityl resin was purchased from EMD Millipore (Billerica, Mass.). Flash chromatography was performed using MP SiliTech 32-63 D 60 Å silica gel purchased from Bodman (Aston, Pa.). Recombinant human CAIX was purchased from R&D Systems (Minneapolis, Minn.). 1H NMR spectra were recorded on a Bruker Ultrashield 500 MHz spectrometer. Chemical shifts (δ) were reported in ppm downfield by reference to proton resonances resulting from incomplete deuteration of the NMR solvent. ESI mass spectra were obtained on a Bruker Daltonics Esquire 3000 Plus spectrometer (Billerica, Mass.).
Competitive Fluorescence Polarization Assay for [Al^19F]XYIMSR-04, [^63/65Cu]XYIMSR-06, and [^175Lu]XYIMSR-01. Fluorescence polarization (FP) experiments were performed in 21 μL of the assay buffer (12.5 mM Tris-HCl, pH 7.5, 75 mM NaCl) in transparent flat bottom 384 well Small Volume™ LoBase Microplates (Greiner Bio-One, Frickenhausen Germany). The FP reaction employed 100 nM of purified CAIX (R&D systems, Minneapolis, Minn.) and 80 nM FITC-labeled ligand within the assay buffer. The FP values were measured as mP units using the Safire2™ plate reader (Tecan, Morrisville, N.C.) with excitation at 475 nm and emission at 532 nm emission. 100 nM CAIX was incubated with serially diluted (from 8 μM to 488.2 fM) concentrations of the […] targeting molecules, 2, [Al^19F]XYIMSR-04, [^63/65Cu]XYIMSR-06 and [^175Lu]XYIMSR-01 for 30 min at room temperature in 384 well plates. 80 nM FITC-labeled ligand was added to each well and the reaction was incubated for 30 min at room temperature followed by FP measurements. Experiments were carried out in triplicate and the concentration resulting in 50% response (IC50) was calculated in GraphPad Prism 5 (GraphPad Software, La Jolla, Calif.) using the sigmoidal dose-response regression function.

[3] = molecular target: T1, CAIX; experiment: Competitive fluorescence polarization assay for [113/115In]XYIMSR-01; assay type: binding; parameters: purchased R&D Systems
Description: as §1
Competitive Fluorescence Polarization Assay for [^113/115In]XYIMSR-01. Fluorescence polarization (FP) experiments were performed in 21 μL of the assay buffer (12.5 mM Tris-HCl, pH 7.5, 75 mM NaCl) in black flat bottom 384-well microplates (Corning, Inc., New York, N.Y.) The FP reaction employed 100 nM of purified CAIX (R&D systems, Minneapolis, Minn.) and 80 nM FITC-labeled 8 (Wichert, et al., 2015) within the assay buffer. The FP values were measured as mP units using the Victor3 multi-label plate reader equipped with excitation (485 nm) and emission (535 nm) filters (Perkin Elmer, Waltham, Mass.). 100 nM CAIX was incubated with serially diluted (from 1 μM to 61 fM) concentrations of the three targeting molecules, 2, XYIMSR-01, and [^113/115In]XYIMSR-01 for 30 min at room temperature in 384-well plates. 80 nM 8 was added to each well and the reaction was incubated for 30 min at room temperature followed by FP measurement. Experiments were carried out in triplicate and the concentration resulting in 50% response (IC50) was calculated in GraphPad Prism 5 (GraphPad Software, La Jolla, Calif.) using the sigmoidal dose-response regression function.

For `CC(CCC(=O)N[C@@H](CC(=O)N[C@@H](CC(=O)N[C@@H](CCCCn1cc(CCCC(=O)Nc2nnc(S(N)(=O)=O)s2)nn1)C(=O)NCCOCCOCCN)C(=O)O)C(=O)O)(c1ccc(O)cc1)c1ccc(O)cc1` [compound 3, N^4-((S)-1-((2-(2-(2-aminoethoxy)ethoxy)ethyl)amino)-1-oxo-6-(4-(4-oxo-4((5-sulfamoyl-1,3,4-thiadiazol-2-yl)amino)butyl)-1H-1,2,3-triazol-1-yl)hexan-2-yl)-N^2-((S)-3-(4,4-bis(4-hydroxyphenyl)pentanamido)-3-carboxypropanoyl)-L-asparagine, reference compound], the Kd [1] is given as 2.6 nM, the IC50 [2] is given as 63.6 ± 2.8 nM and the IC50 ([3]; 100 nM CAIX, 80 nM FITC-labeled 8, read-out: IC50, inhibition of fluorescence polarization of FITC labeled 8) is given as 75.9 nM. The “binding affinity to CAIX (in words)” value ([3]; competitive fluorescence polarization) was “high binding affinity”.
